Data from PMC6600671, “Design and Synthesis of Indoleamine 2,3-Dioxygenase 1 Inhibitors and Evaluation of Their Use as Anti-Tumor Agents” (Molecules, 2019).

Columns and labels:
rhIDO1 = rhIDO1 (Homo sapiens, UniProt P14902); experiment: Enzyme-based IDO1 activity assay (kynurenine absorbance at 492 nm); type: biochemical; settings: for inhibition at 50 µM: shown when calculated IC50 >50 μM, read-out: IDO inhibition rate (%) at 50 μM; for IC50: rhIDO1 0.05 μM, 37 °C, 45 min, read-out: IDO IC50
Method: (§1) The compounds on IDO1 or TDO activity were determined as follows: A standard reaction mixture (100 μL) containing 100 mM potassium phosphate buffer (pH 6.5), 40 mM ascorbic acid (neutralized with NaOH), 200 μg/mL catalase, 20 μM methylene blue and 0.05 μM rhIDO1 or rhTDO was added to the solution containing the substrate L-tryptophan and the test sample at a determined concentration. […] The yellow pigment derived from kynurenine was measured at 492 nm using a SYNERGY-H1 microplate reader (Biotek Instruments, Inc., Winooski, VT, USA). IC50 was analyzed using the GraphPad Prism 8.0 software (GraphPad Software, San Diego, CA, USA).

rhTDO = rhTDO (Homo sapiens, UniProt P48775); experiment: Enzyme-based TDO activity assay (kynurenine absorbance at 492 nm); type: biochemical; settings: for inhibition at 50 µM: shown when calculated IC50 >50 μM, read-out: TDO inhibition rate (%) at 50 μM; for inhibition at 50 µM / TDO IC50 or %: at 50 μM; for TDO IC50 or %: dash symbol
Sequence of rhTDO (P48775 whole entry): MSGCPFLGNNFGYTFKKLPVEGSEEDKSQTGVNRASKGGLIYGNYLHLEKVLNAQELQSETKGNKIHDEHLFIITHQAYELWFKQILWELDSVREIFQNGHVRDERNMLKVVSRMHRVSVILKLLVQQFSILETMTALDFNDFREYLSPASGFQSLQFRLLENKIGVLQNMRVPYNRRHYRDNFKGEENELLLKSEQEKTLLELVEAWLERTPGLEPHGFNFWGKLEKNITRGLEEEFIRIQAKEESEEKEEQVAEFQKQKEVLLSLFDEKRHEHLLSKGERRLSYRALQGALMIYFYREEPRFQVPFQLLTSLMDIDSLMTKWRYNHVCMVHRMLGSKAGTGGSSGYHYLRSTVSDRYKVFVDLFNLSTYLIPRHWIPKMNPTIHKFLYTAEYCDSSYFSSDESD
Method: as §1

MCF7 = experiment: Cell viability MTT assay, 72 h; type: cell-based; settings: Homo sapiens; for inhibition at 50 µM: shown when calculated IC50 >50 μM, read-out: MCF7 inhibition rate (%) at 50 μM; for IC50: read-out: MCF7 IC50
Method: (§2) B16-F10 mouse melanoma cells, NCI-H460 human lung cancer cell line and MCF7 were obtained from American Type Culture Collection (ATCC). All the cell lines were cultured with Dulbecco’ modified Eagle’s medium (DMEM) (Invitrogen Corporation, Waltham, MA, USA) supplemented with 10% fetal bovine serum (FBS) (Hyclone, Waltham, MA, USA) and 1% penicillin streptomycin (Invitrogen) at 37 °C in 5% CO2.
(§3) The in vitro inhibitory effects of the compounds were measured by MTT assay. Briefly, different kinds of cells were plated in 96-well plates at a density of 2000/well. After attachment for overnight at 37 °C, the cells were treated with the compounds at various concentrations. After 72 h culture, the MTT reagent was added to each well, and plates were incubated for another 4 h at 37 °C. Then, the blue-purple crystal formamidine was dissolved in DMSO after discarding the supernatant. Samples were measured using microplate reader at a wavelength of 570 nm (Biotek Instruments, Inc., Winooski, VT, USA). IC50 values were calculated with GraphPad Prism 8.0 software.

[1] = tested on: NCI-H460 human lung cancer cell line; experiment: Cell viability MTT assay, 72 h; type: cell-based; settings: for inhibition at 50 µM: shown when calculated IC50 >50 μM, read-out: H460 inhibition rate (%) at 50 μM
Method: as §2, §3

Sequence of rhIDO1 (P14902 whole entry): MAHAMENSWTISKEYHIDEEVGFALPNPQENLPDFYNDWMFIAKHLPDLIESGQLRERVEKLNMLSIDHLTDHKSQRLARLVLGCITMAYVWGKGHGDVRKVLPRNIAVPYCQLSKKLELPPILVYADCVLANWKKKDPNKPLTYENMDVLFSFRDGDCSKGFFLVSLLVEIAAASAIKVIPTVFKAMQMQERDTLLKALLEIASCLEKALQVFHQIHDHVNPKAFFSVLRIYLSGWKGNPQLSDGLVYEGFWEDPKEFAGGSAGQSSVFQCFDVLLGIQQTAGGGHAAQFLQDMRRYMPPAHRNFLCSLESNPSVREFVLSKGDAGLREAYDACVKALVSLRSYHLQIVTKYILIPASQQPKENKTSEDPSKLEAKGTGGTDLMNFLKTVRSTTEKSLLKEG

Row | SMILES | inhibition at 50 µM (rhIDO1; at 50 μM) [%] | inhibition at 50 µM (rhTDO) [%] | inhibition at 50 µM (MCF7) [%] | inhibition at 50 µM [1] [%] | also measured
1 | CCOC(=O)c1[nH]c2ccc(F)cc2c1C1CC(=O)NC1=O (racemic) [DX-02-03, (R/S) Ethyl 3-(2,5-dioxopyrrolidin-3-yl)-5-fluoro-1H-indole-2-carboxylate] | 21.6 | 15.4 | 22.1 | 21.7 | 
2 | O=C1CC(c2c(/C=N/O)[nH]c3ccc(F)cc23)C(=O)N1 (racemic) [DX-02-04, (R/S) (E)-3-(2,5-dioxopyrrolidin-3-yl)-5-fluoro-1H-indole-2-carbaldehyde oxime] | 40.2 | 14.5 |  |  | 
3 | O=C1CC(c2c(CNO)[nH]c3ccc(F)cc23)C(=O)N1 (racemic) [DX-02-05, (R/S) 3-(5-fluoro-2-((hydroxyamino)methyl)-1H-indol-3-yl)pyrrolidine-2,5-dione] | 12.5 | 16.3 |  |  | 
4 | CSc1[nH]c2ccc(F)cc2c1C1CC(=O)NC1=O (racemic) [DX-02-06, (R/S) 3-(5-fluoro-2-(methylthio)-1H-indol-3-yl)pyrrolidine-2,5-dione] | 22.6 | 19.6 | 19.9 | 30.1 | 
5 | C[S+]([O-])c1[nH]c2ccc(F)cc2c1C1CC(=O)NC1=O (racemic) [DX-02-07, (R/S) 3-(5-fluoro-2-(methylsulfinyl)-1H-indol-3-yl)pyrrolidine-2,5-dione] | 20.1 | 13.9 | 11 | 15.2 | 
6 | Cc1cccc2[nH]cc(C(=O)O)c12 [DX-01-02, 4-methyl-1H-indole-3-carboxylic Acid] | 2.4 | 10 |  | 39.2 | IC50 (MCF7): 43.1 µM
7 | Cc1ccc2[nH]cc(C(=O)O)c2c1 [DX-01-03, 5-methyl-1H-indole-3-carboxylic Acid] | 10.3 | 10.1 | 37.6 | 26.3 | 
8 | O=C(O)c1c[nH]c2ccc([N+](=O)[O-])cc12 [DX-01-04, 5-nitro-1H-indole-3-carboxylic Acid] | 3.3 | 6 | 24.3 | 15.1 | 
9 | O=C(O)c1c[nH]c2cc([N+](=O)[O-])ccc12 [DX-01-05, 6-nitro-1H-indole-3-carboxylic Acid] | 10.2 | 10.5 | 29.7 | 5.9 | 
10 | COc1ccc2[nH]cc(C(=O)O)c2c1 [DX-01-06, 5-methoxy-1H-indole-3-carboxylic Acid] | 6.2 | 8.4 | 25.7 | 11.2 | 
11 | O=C(O)c1c[nH]c2c(Br)cccc12 [DX-01-07, 7-bromo-1H-indole-3-carboxylic Acid] | 7.4 | 16.9 | 34.6 | 22.2 | 
12 | N#Cc1c[nH]c2ccccc12 [DX-01-09] | 2.6 | 7.8 |  |  | 
13 | N#CCc1c[nH]c2ccccc12 [DX-01-10] | 2.1 | 8.9 |  |  | 
14 | COc1ccc2[nH]cc(CCNC(C)=O)c2c1 [DX-01-11] |  | 3.8 |  |  | IDO IC50 or % (rhIDO1; at 50 μM, dash symbol): -
15 | O/N=C/c1c[nH]c2ccccc12 [DX-01-13, (E) 1H-indole-3-carbaldehyde Oxime] | 19.7 | 8.1 | 10.1 | 23.1 | 
16 | ONCc1c[nH]c2ccccc12 [DX-01-14, N-((1H-indol-3-yl)methyl)hydroxylamine] |  | 38.2 |  |  | IDO1 inhibition, in words (rhIDO1): moderate; IC50 (rhIDO1): 11.1 µM
17 | Cc1ccccc1-c1ccc2[nH]cc(CNO)c2c1 [DX-01-15, N-((5-(o-tolyl)-1H-indol-3-yl)methyl)hydroxylamine] |  | 35.4 |  |  | IDO1 inhibition, in words (rhIDO1): moderate; IC50 (rhIDO1): 21.3 µM
18 | O=c1[nH]c2ccccc2o1 [DX-01-18] | 5.4 |  |  |  | TDO IC50 or % (rhTDO; Table 1): -
19 | O/N=C/c1cc(Cl)ccc1-c1c[nH]cn1 [DX-03-05, (E) 5-chloro-2-(1H-imidazol-4-yl)benzaldehyde Oxime] | 31.3 | 12.1 |  |  | 
20 | COc1ccc(-c2c[nH]cn2)c(/C=N/O)c1 [DX-03-07, (E) 2-(1H-imidazol-4-yl)-5-methoxybenzaldehyde Oxime] | 33.5 | 15.1 |  |  | 
21 | O/N=C/c1cc(-c2ccccc2C(F)(F)F)ccc1-c1c[nH]cn1 [DX-03-08, (E) 4-(1H-imidazol-4-yl)-2′-(trifluoromethyl)-[1,1′-biphenyl]-3-carbaldehyde Oxime] | 15.6 | 11.1 |  |  | 
22 | FC(F)(F)c1ccc(COc2ccccc2-c2csnn2)cc1 [DX-03-10, 4-(2-((4-(trifluoromethyl)benzyl)oxy)phenyl)-1,2,3-thiadiazole] | 13.2 | 21.5 | 24.7 | 7.6 | 
23 | NS(=O)(=O)NCCCOc1ccccc1-c1c[nH]cn1 [DX-03-11, N-(3-(2-(1H-imidazol-5-yl)phenoxy)propyl)-aminesulfonamide] |  | 38.2 |  |  | IC50 (rhIDO1): 2.4 µM; TDO inhibition, in words (rhTDO): marginal
24 | CC(=O)O[C@H]1C(=O)[C@@]2(C)[C@H]([C@H](OC(=O)c3ccccc3)[C@]3(O)C[C@H](OC(=O)[C@H](O)[C@@H](NC(=O)c4ccccc4)c4ccccc4)C(C)=C1C3(C)C)[C@]1(OC(C)=O)CO[C@@H]1C[C@@H]2O [Taxol, reference compound] |  |  |  |  | IC50 (MCF7): 0.015 µM; IC50 ([1]; read-out: H460 IC50): 0.006 µM

Continued, in another order:

Row | inhibition at 50 µM (rhIDO1; at 50 μM) [%] | inhibition at 50 µM (rhTDO) [%] | SMILES | inhibition at 50 µM (MCF7) [%] | inhibition at 50 µM [1] [%] | also measured
25 | 7.2 | 2.3 | O=C1CC(Cc2c[nH]c3ccccc23)C(=O)N1 (racemic) [DX-02-02, (R/S) 3-((1H-indol-3-yl)methyl)pyrrolidine-2,5-dione] |  |  | 
26 | 9.7 | 8.9 | O=C(O)c1cc2ccccc2[nH]1 [DX-01-01] |  |  | 
27 | 10.9 | 3.2 | O=[N+]([O-])c1c[nH]c2ccccc12 [DX-01-08] |  |  | 
28 | 47.1 | 33.9 | O=C(NO)c1c[nH]c2ccccc12 [DX-01-12] |  |  | 
29 |  | 19.7 | O/N=C/c1cc2ccccc2[nH]1 [DX-01-16, (E)-1H-indole-2-carbaldehyde Oxime] | 20.9 | 44.5 | IDO1 inhibition, in words (rhIDO1): moderate; IC50 (rhIDO1): 23.2 µM
30 |  | 42.2 | ONCc1cc2ccccc2[nH]1 [DX-01-17, N-((1H-indol-2-yl)methyl)hydroxylamine] |  |  | IDO1 inhibition, in words (rhIDO1): moderate; IC50 (rhIDO1): 17.7 µM
31 | 15.7 | 3.8 | N#CCc1nc2ccccc2o1 [DX-01-20] |  |  | 
32 | 13.2 | 4.5 | N#CCc1nc2ccccc2[nH]1 [DX-01-22] |  |  | 
33 | 6.3 |  | O=C1C/C(=C\c2c[nH]c3ccccc23)C(=O)N1 [DX-02-01, (E)-3-((1H-indol-3-yl)methylene)pyrrolidine-2,5-dione] |  |  | TDO IC50 or % (rhTDO; Table 2): -
34 | 24.2 | 13.9 | O/N=C/c1ccccc1-c1c[nH]cn1 [DX-03-02, (E) 2-(1H-imidazol-4-yl)benzaldehyde Oxime] |  |  | 
35 | 19.4 | 11.1 | ONCc1ccccc1-c1c[nH]cn1 [DX-03-03, N-(2-(1H-imidazol-4-yl)benzyl)hydroxylamine] | 22.2 | 5 | 
36 | 11.9 | 20.3 | O/N=C/c1ccccc1-c1nn[nH]n1 [DX-03-04, (E) 2-(2H-tetrazol-5-yl)benzaldehyde Oxime] | 34.7 | 12.7 | 
37 | 25.6 | 12.9 | O/N=C/c1c(F)cccc1-c1c[nH]cn1 [DX-03-06, (E) 2-fluoro-6-(1H-imidazol-4-yl)benzaldehyde Oxime] |  |  | 
38 | 5.3 | 6.4 | O/N=C/c1ccc(-c2ccccc2)cc1-c1c[nH]cn1 [DX-03-09, (E) 3-(1H-imidazol-4-yl)-[1,1′-biphenyl]-4-carbaldehyde Oxime] | 37.7 | 40.5 | 
